Laboratory results published in patent publication US11564912B2, “Methods for treating irritable bowel syndrome (IBS)” (Salix Pharmaceuticals, Inc., priority 2008, dated 2023).

Test system: subjects with dIBS
Experiment: Study of rifaximin BID in subjects with dIBS: adequate relief of IBS symptoms and bloating
Format: in vivo, human
Details: for Percentage of Subjects with Number of Weeks with Adequate Relief of Bloating Symptoms / Percentage of Subjects with Number of Weeks with Adequate Relief of IBS Symptoms: RFX 550 mg BID, N = 191, ITT
Protocol: This example relates to a study of rifaximin in subjects with dIBS. […] There were two measures of efficacy assessed. Subjects were questioned on the relief of overall IBS symptoms and bloating. […] The analyses defined success as a “yes” response to questions regarding adequate relief.
All subpopulations in the study responded to therapy. Baseline severity was determined using 7-point Lickert scales during screening for Abdominal Pain/Discomfort and Bloating, and the number, type (normal, hard, loose) and urgency of bowel movements.
Duration of effect was assessed in a follow-up period. Subjects that responded in the 4 week treatment period were followed for an additional 3 months.
The effect of treatment on the percentage of subjects who reported adequate relief of IBS and bloating symptoms for at least two of the final three weeks during the treatment phase (Weeks 1 to 4) is shown in Tables 3-5 and FIGS. 4-6 below.
Two measures of efficacy were assessed independently. The first was the proportion of subjects who provided a ‘yes’ response to the weekly SGA question: “In the past 7 days, have you had adequate relief of your IBS symptoms? (yes/no)”. The second endpoint was the proportion of subjects who provide a ‘yes’ response to the weekly individual symptom question: “In the past 7 days, have you had adequate relief of your symptom of bloating? (yes/no)”. Durability was based on the proportion of subjects that had adequate relief over the entire treatment phase.
It is reported herein that the severity of baseline symptoms of abdominal pain and bloating influenced the response to rifaximin treatment. The co-primary endpoints in this analysis assessed weekly yes/no responses to questions regarding adequate relief of global IBS symptoms and IBS-associated bloating. Severity of baseline IBS symptoms was evaluated as a potential confounder of clinical response and was categorized as mild/moderate or severe based on a mean score of ≤4 vs. >4 (on a 7-point scale) for bloating and abdominal pain.
The Weekly yes/no responses to questions regarding adequate relief of global IBS symptoms and IBS-associated bloating were assessed. Clinical response was defined as adequate relief for 2 of the final 3 treatment weeks (wk 2, 3, or 4). Severity of baseline IBS symptoms was evaluated as a potential confounder of clinical response and was categorized as mild/moderate or severe based on a mean score of ≤4 versus >4 (on a 7-point scale (0=not bothersome; 6=very bothersome)) for bloating and abdominal pain.

## (2S,16Z,18E,20S,21S,22R, 23R,24R,25S,26S,27S,28E)-5,6,21,23,25 Pentahydroxy-27-methoxy -2,4,11,16,20,22,24,26-octamethyl-2,7-(epoxypentadeca-(1,11,13)trienimino)benzofuro (4,5-e) pyrido(1,2,-a) benzimidazole-1,15(2H)-dione,25-acetate [Rifaximin]
0 weeks
  Percentage of Subjects with Number of Weeks with Adequate Relief of Bloating Symptoms: 35%
  Percentage of Subjects with Number of Weeks with Adequate Relief of IBS Symptoms: 33%
550 mg BID for 2 weeks
  Adequate relief of IBS related symptoms (SGA) and IBS-related bloating (IBS-B): statistically significant relief
1 week
  Percentage of Subjects with Number of Weeks with Adequate Relief of Bloating Symptoms: 14%
  Percentage of Subjects with Number of Weeks with Adequate Relief of IBS Symptoms: 11%
2 weeks
  Percentage of Subjects with Number of Weeks with Adequate Relief of Bloating Symptoms: 15%
  Percentage of Subjects with Number of Weeks with Adequate Relief of IBS Symptoms: 15%
3 weeks
  Percentage of Subjects with Number of Weeks with Adequate Relief of Bloating Symptoms: 20%
  Percentage of Subjects with Number of Weeks with Adequate Relief of IBS Symptoms: 23%
4 weeks
  Percentage of Subjects with Number of Weeks with Adequate Relief of Bloating Symptoms: 14%
  Percentage of Subjects with Number of Weeks with Adequate Relief of IBS Symptoms: 16%
Age <65
  Treatment effect (Bloating): 6.8%
  Treatment effect (IBS Sx): 6.9%
Age ≥65
  Treatment effect (Bloating): 3.2%
  Treatment effect (IBS Sx): 19.1%
Diabetes History: N
  Treatment effect (Bloating): 7.4%
  Treatment effect (IBS Sx): 9.5%
Diabetes History: Y
  Treatment effect (Bloating): −5.6%
  Treatment effect (IBS Sx): −12.7%
Disease Duration: 10-20 y
  Treatment effect (Bloating): 11.7%
  Treatment effect (IBS Sx): 20.1%
Disease Duration: >20 y
  Treatment effect (Bloating): 35.1%
  Treatment effect (IBS Sx): 46.6%
Disease Duration: ≤10 y
  Treatment effect (Bloating): 2.8%
  Treatment effect (IBS Sx): 1.8%
Female, RFX 275 2 w (N = 95)
  Adequate Relief of Bloating at the End of the Treatment Phase: Failure: 52 (64.2%) n (%)
  Adequate Relief of Bloating at the End of the Treatment Phase: Success: 29 (35.8%) n (%)
  Adequate Relief of IBS Symptoms at the End of the Treatment Phase: Failure: 46 (56.8%) n (%)
  Adequate Relief of IBS Symptoms at the End of the Treatment Phase: Success: 35 (43.2%) n (%)
Female, RFX 550 2 w (N = 99)
  Adequate Relief of Bloating at the End of the Treatment Phase: Failure: 45 (61.6%) n (%)
  Adequate Relief of Bloating at the End of the Treatment Phase: Success: 28 (38.4%) n (%)
  Adequate Relief of IBS Symptoms at the End of the Treatment Phase: Failure: 44 (60.3%) n (%)
  Adequate Relief of IBS Symptoms at the End of the Treatment Phase: Success: 29 (39.7%) n (%)
Female, RFX 550 2 w (N = 191)
  Adequate Relief of Bloating at the End of the Treatment Phase: Failure: 74 (54.0%) n (%)
  Adequate Relief of Bloating at the End of the Treatment Phase: Success: 63 (46.0%) n (%)
  Adequate Relief of IBS Symptoms at the End of the Treatment Phase: Failure: 66 (48.2%) n (%)
  Adequate Relief of IBS Symptoms at the End of the Treatment Phase: Success: 71 (51.8%) n (%)
Female, RFX 550 2 w vs. PBO
  odds ratio, Adequate Relief of Bloating at the End of the Treatment Phase: Comparison of RFX 550 2 w vs. PBO p-value: 0.5366, odds ratio: 1.166 (0.716, 1.898)
  odds ratio, Adequate Relief of IBS Symptoms at the End of the Treatment Phase: Comparison of RFX 550 2 w vs. PBO p-value: 0.7608, odds ratio: 1.078 (0.665, 1.747)
Female, RFX 550 4 w (N = 98)
  Adequate Relief of Bloating at the End of the Treatment Phase: Failure: 44 (57.9%) n (%)
  Adequate Relief of Bloating at the End of the Treatment Phase: Success: 32 (42.1%) n (%)
  Adequate Relief of IBS Symptoms at the End of the Treatment Phase: Failure: 42 (55.3%) n (%)
  Adequate Relief of IBS Symptoms at the End of the Treatment Phase: Success: 34 (44.7%) n (%)
Gender: F
  Treatment effect (Bloating): 3.9%
  Treatment effect (IBS Sx): 3.5%
Gender: M
  Treatment effect (Bloating): 13.6%
  Treatment effect (IBS Sx): 21%
Male, RFX 275 2 w (N = 95)
  Adequate Relief of Bloating at the End of the Treatment Phase: Failure: 8 (57.1%) n (%)
  Adequate Relief of Bloating at the End of the Treatment Phase: Success: 6 (42.9%) n (%)
  Adequate Relief of IBS Symptoms at the End of the Treatment Phase: Failure: 9 (64.3%) n (%)
  Adequate Relief of IBS Symptoms at the End of the Treatment Phase: Success: 5 (35.7%) n (%)
Male, RFX 550 2 w (N = 99)
  Adequate Relief of Bloating at the End of the Treatment Phase: Failure: 16 (61.5%) n (%)
  Adequate Relief of Bloating at the End of the Treatment Phase: Success: 10 (38.5%) n (%)
  Adequate Relief of IBS Symptoms at the End of the Treatment Phase: Failure: 14 (53.8%) n (%)
  Adequate Relief of IBS Symptoms at the End of the Treatment Phase: Success: 12 (46.2%) n (%)
Male, RFX 550 2 w (N = 191)
  Adequate Relief of Bloating at the End of the Treatment Phase: Failure: 29 (53.7%) n (%)
  Adequate Relief of Bloating at the End of the Treatment Phase: Success: 25 (46.3%) n (%)
  Adequate Relief of IBS Symptoms at the End of the Treatment Phase: Failure: 25 (46.3%) n (%)
  Adequate Relief of IBS Symptoms at the End of the Treatment Phase: Success: 29 (53.7%) n (%)
